From US20190008920A1, “OPHTHALMIC COMPOSITIONS AND METHODS OF USE” (Ocugen, Inc., priority 2017, published 2019)

Experiments:
[1] = brimonidine tartrate + cyclosporine nanoemulsion formulation
Procedure: The partitioning of active pharmaceutical ingredients in oil and aqueous phases of these exemplary nanoemulsion formulations were determined using RP-HPLC methods. […] In nanoemulsion formulation, oil and aqueous phase were separated using ultrafiltration unit by centrifugation process. Quantity of APIs in these oil and aqueous phase was quantified using HPLC method.

[2] = ophthalmic solution 5.0%, administered twice daily; cited from earlier work

fraction of API partitioned in aqueous phase ([1]; aqueous phase) [%]	fraction of API partitioned in oil phase ([1]; oil phase) [%]	SMILES	symptoms of ocular discomfort and eye dryness compared with placebo [2]
~70	~30	Brc1c(NC2=NCCN2)ccc2nccnc12 [brimonidine, 5-Bromo-N-(4,5-dihydro-1H-imidazol-2-yl) quinoxalin-6-amine]	
		CS(=O)(=O)c1cccc(C[C@H](NC(=O)c2c(Cl)cc3c(c2Cl)CCN(C(=O)c2ccc4ccoc4c2)C3)C(=O)O)c1 [Lifitegrast, N-{[2-(1-Benzofuran-6-ylcarbonyl)-5,7-dichloro-1,2,3,4-tetrahydro-6-isoquinolinyl]carbonyl}-3-(methylsulfonyl)-L-phenylalanine]	improve symptoms of ocular discomfort and eye dryness
